Results on 9 molecules are retold here after patent publication US11673876B2, “Substituted aminobenzyl heteroaryl compounds as EGFR and/or PI3K inhibitors” (Mekanistic Therapeutics LLC, priority 2020, dated 2023).

A short description of series [1]: Metabolic stability in human liver microsomes. Format: in vitro ADME. The procedure: (§1) Working solution: 5 μL of compound and control stock solution (10 mM in dimethyl sulfoxide (DMSO)) were diluted with 495 μL of acetonitrile (ACN) (intermediate solution concentration: 100 μM, 99% ACN)
(§2) NADPH Cofactor Preparation: NADPH powder: β-Nicotinamide adenine dinucleotide phosphate reduced form, tetrasodium salt; NADPH·4Na. The appropriate amount of NADPH powder was weighed and diluted into a 10 mM MgCl2 solution (working solution concentration: 10 unit/mL; final concentration in reaction system: 1 unit/mL)
(§3) Liver Microsomes Preparation: The appropriate concentrations of microsome working solutions were prepared in 100 mM potassium phosphate buffer. Cold (4° C.) acetonitrile (ACN) containing 200 ng/mL tolbutamide and 200 ng/mL labetalol as internal standards (1S) was used as the stop solution
(§4) Assay Procedure: Pre-warm empty ‘Incubation’ plates T60 and NCF60 for 10 minutes. Dilute liver microsomes to 0.56 mg/mL in 100 mM phosphate buffer. Transfer 445 μL microsome working solutions (0.56 mg/mL) into pre-warmed ‘Incubation’ plates T60 and NCF60, Then pre-incubate ‘Incubation’ plates T60 and NCF60 for 10 min at 37° C. with constant shaking. Transfer 54 μL liver microsomes to blank plate, then add 6 μL NAPDH cofactor to blank plate, and then add 180 μL quenching solution to blank plate. Add 5 μL compound working solution (100 μM) into ‘incubation’ plates (T60 and NCF60) containing microsomes and mix 3 times thoroughly.
(§5) For the NCF60 plate, add 50 μL of buffer and mix 3 times thoroughly. Start timing; plate will be incubated at 37° C. for 60 min while shaking. In ‘Quenching’ plate T0, add 180 μL quenching solution and 6 μL NAPDH cofactor. Ensure the plate is chilled to prevent evaporation. For the T60 plate, mix 3 times thoroughly, and immediately remove 54 μL mixture for the 0-min time point to ‘Quenching’ plate. Then add 44 μL NAPDH cofactor to incubation plate (T60). Start timing; plate will be incubated at 37° C. for 60 min while shaking. At 5, 10, 20, 30, and 60 min, add 180 μL quenching solution to ‘Quenching’ plates, mix once, and serially transfer 60 μL sample from T60 plate per time point to ‘Quenching’ plates. For NCF60: mix once, and transfer 60 μL sample from the NCF60 incubation to ‘Quenching’ plate containing quenching solution at the 60-min time point. All sampling plates are shaken for 10 min, then centrifuged at 4000 rpm for 20 minutes at 4° C. Transfer 80 μL supernatant into 240 μL HPLC water, and mix by plate shaker for 10 min. Each bioanalysis plate was sealed and shaken for 10 minutes prior to LC-MS/MS analysis.
(§6) The equation of first order kinetics was used to calculate T½ and CLint(mic) (μL/min/mg). Equation of first order kinetics: […]
(§7) The biological stability of the compounds of the disclosure can be measured by determining its ½ life in the presence microsomes. Presented in Table 5, is the ½ life of selected compounds of the disclosure in the presence of human liver microsomes (HLM) or mouse liver microsomes (MLM) as described above. In Table 5, ½ life is presented as “++++” (value is greater than 60 minutes), “+++” (value is greater than 30 minutes and less than or equal to 60 minutes), “++” (value is greater than 15 minutes and less than or equal to 30 minutes) and “+” (value is 15 minutes or less).
For orientation: Liver microsomes are vesicles of endoplasmic reticulum, rich in cytochrome P450 enzymes.

For a further series, the target named is EGFR (Homo sapiens (Human), UniProt P00533). Put plainly: Z'-LYTE / Adapta kinase assay, EGFR. As to conditions: for inhibition at 0.1 µM: read-out: EGFR % Inh. @ 100 nM. The class given is biochemical. In outline: (§8)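 Z'-LYTE FRET-peptide phosphorylation read as coumarin/fluorescein emission ratio (400 nm excitation); Adapta immunoassay detects ADP formation. 60-min kinase reaction, 60-min development, room temperature.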
Sequence of EGFR (P00533 25-1210): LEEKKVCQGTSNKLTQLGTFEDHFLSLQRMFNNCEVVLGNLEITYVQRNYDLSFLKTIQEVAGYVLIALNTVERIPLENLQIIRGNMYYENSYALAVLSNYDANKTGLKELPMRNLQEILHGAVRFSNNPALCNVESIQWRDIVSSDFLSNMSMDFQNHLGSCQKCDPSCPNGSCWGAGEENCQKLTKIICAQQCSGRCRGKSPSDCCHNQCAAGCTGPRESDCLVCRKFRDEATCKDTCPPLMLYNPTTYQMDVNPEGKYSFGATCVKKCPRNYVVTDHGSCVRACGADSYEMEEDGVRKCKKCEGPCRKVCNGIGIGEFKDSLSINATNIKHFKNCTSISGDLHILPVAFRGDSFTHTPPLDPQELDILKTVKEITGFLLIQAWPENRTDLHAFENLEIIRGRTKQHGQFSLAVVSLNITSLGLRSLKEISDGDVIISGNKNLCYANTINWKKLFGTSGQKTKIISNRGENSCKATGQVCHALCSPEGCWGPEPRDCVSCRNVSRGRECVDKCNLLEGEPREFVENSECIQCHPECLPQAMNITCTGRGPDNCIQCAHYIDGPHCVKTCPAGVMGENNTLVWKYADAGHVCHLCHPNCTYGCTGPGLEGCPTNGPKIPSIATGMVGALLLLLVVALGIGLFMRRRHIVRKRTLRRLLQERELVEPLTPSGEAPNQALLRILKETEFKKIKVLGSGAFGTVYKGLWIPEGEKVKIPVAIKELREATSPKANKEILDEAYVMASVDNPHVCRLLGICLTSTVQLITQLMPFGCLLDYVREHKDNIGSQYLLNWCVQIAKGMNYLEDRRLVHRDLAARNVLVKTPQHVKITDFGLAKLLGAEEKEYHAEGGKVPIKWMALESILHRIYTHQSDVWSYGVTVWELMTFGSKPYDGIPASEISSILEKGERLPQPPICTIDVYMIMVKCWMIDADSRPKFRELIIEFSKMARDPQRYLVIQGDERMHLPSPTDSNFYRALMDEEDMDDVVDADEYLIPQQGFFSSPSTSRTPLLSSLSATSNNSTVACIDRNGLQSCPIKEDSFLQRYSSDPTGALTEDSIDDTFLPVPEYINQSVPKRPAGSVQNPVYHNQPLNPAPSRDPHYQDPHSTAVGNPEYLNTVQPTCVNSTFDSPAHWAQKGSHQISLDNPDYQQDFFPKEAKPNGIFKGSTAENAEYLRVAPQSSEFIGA

Series [2] in a line: Metabolic stability in mouse liver microsomes. The class given is in vitro ADME. The procedure: as §1, §2, §3, §4, §5, §6, §7
A further series concerns the target PI3Ka (Homo sapiens (Human), UniProt P42336). Nature of the series: Z'-LYTE / Adapta kinase assay, PI3Ka. Format: biochemical. As to conditions: for inhibition at 0.1 µM: read-out: PI3Ka % Inh. @ 100 nM. In a few lines: as §8

Sequence of PI3Ka (P42336 whole entry): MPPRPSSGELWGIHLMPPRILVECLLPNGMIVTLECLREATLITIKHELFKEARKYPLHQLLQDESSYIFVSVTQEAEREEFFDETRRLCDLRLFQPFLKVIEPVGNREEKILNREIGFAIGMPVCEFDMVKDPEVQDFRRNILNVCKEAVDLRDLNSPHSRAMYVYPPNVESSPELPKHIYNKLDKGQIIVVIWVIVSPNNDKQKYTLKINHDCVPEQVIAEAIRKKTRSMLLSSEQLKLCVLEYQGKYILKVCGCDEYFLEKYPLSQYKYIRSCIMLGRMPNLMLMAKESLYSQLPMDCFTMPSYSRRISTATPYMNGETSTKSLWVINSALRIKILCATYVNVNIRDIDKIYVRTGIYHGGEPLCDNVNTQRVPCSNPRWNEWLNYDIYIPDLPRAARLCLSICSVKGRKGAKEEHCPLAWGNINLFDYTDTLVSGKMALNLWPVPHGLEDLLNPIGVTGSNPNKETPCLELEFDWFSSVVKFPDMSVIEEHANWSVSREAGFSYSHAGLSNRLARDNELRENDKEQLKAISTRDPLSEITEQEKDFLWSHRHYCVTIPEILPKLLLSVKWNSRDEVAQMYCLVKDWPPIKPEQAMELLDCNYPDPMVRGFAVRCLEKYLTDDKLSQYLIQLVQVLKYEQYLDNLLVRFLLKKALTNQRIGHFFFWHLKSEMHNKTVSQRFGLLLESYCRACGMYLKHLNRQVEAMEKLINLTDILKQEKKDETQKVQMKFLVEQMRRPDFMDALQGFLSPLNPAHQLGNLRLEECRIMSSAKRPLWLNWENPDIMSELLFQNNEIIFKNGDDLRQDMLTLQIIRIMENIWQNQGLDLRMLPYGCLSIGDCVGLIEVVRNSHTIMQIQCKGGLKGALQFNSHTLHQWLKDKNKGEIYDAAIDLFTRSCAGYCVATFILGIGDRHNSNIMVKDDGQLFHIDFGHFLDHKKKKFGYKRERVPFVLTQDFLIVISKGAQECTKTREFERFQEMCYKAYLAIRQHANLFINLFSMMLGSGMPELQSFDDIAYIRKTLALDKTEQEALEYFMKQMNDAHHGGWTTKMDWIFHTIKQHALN
Sequence of PI3Ka (P27986 whole entry partner): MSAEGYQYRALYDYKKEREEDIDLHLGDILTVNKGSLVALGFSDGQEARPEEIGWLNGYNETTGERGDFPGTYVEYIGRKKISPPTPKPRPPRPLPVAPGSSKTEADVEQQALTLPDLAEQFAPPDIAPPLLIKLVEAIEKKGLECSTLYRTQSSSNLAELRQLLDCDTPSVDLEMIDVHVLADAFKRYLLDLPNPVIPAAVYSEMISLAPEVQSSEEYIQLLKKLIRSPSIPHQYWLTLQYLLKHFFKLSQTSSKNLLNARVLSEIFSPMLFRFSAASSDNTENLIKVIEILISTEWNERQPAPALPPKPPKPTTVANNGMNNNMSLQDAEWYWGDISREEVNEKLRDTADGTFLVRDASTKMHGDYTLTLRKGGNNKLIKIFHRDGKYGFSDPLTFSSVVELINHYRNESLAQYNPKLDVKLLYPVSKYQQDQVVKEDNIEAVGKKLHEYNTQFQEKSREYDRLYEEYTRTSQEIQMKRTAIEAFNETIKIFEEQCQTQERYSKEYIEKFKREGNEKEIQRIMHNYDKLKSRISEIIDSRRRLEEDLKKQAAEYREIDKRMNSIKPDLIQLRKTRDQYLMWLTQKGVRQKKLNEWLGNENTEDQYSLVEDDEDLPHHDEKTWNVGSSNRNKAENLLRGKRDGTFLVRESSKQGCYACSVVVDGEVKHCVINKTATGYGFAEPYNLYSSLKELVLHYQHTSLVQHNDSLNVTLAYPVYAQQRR

In the case of `CS(=O)(=O)Nc1cc(-c2ccc3ncnc(NCc4ccccc4)c3c2)cnc1Cl` [Comparative Compound 1, N-[5-[4-(benzylamino)quinazolin-6-yl]-2-chloro-3-pyridyl]methanesulfonamide, reference compound], the “½ life minutes (HLM)” value in series [1] is recorded as “++++ (value is greater than 60 minutes)”. Further, on EGFR, the IC50 (commonly the concentration that gives 50% inhibition) fell in the range of 20 to 200 nM and the inhibition at 0.1 µM was in the range of 10 to 80%. The “½ life minutes (MLM)” value in series [2] is reported as “++++ (value is greater than 60 minutes)”. Besides, at PI3Ka, the “PI3Ka IC50 (nM)” value is on record as “++++ (value is 2 nM or less)” and the inhibition at 0.1 µM is over 90%.

In the case of `CS(=O)(=O)Nc1cc(-c2ccc3ncnc(Nc4ccc(F)c(Cl)c4)c3c2)cnc1Cl` [Comparative Compound 2, reference compound], the “½ life minutes (HLM)” value in series [1] is recorded as “++++ (value is greater than 60 minutes)”. At EGFR, the IC50 was in the range of 2 to 20 nM and the inhibition at 0.1 µM was over 90%. In addition, the “½ life minutes (MLM)” value in series [2] is given as “++++ (value is greater than 60 minutes)”. At PI3Ka, the “PI3Ka IC50 (nM)” value is reported as “++++ (value is 2 nM or less)” and the inhibition at 0.1 µM is over 90%.

Turning to `CS(=O)(=O)Nc1cncc(-c2ccc3ncnc(NCc4ccccc4)c3c2)c1` [Comparative Compound 3, reference compound], the “½ life minutes (HLM)” value in series [1] is listed as “++++ (value is greater than 60 minutes)”. On EGFR (100 nM), the “EGFR % Inh. @ 100 nM” value is reported as “**** (value is greater than 90%)”. Further, the “½ life minutes (MLM)” value in series [2] is listed as “+ (value is 15 minutes or less)”. Moreover, the “PI3Ka IC50 (nM)” value at PI3Ka was “++ (value is greater than 20 nM and less than or equal to 200 nM)”. The “PI3Ka % Inh. @ 100 nM” value on PI3Ka (100 nM) is “*** (value is greater than 80% and less than or equal to 90%)”.

Take `C[C@@H](Nc1ncnc2ccc(-c3cnc(Cl)c(NS(C)(=O)=O)c3)cc12)c1ccccc1` [Compound 2R, N-(2-chloro-5-(4-((1R-phenylethyl)amino)quinazolin-6-yl)pyridin-3-yl)methanesulfonamide]: the “½ life minutes (HLM)” value in series [1] was “++++ (value is greater than 60 minutes)”. On EGFR, the IC50 lay in the range of 2 to 20 nM and the inhibition at 0.1 µM was in the range of 80 to 90%. In addition, the “½ life minutes (MLM)” value in series [2] is on record as “++++ (value is greater than 60 minutes)”. On PI3Ka, the IC50 fell in the range of 2 to 20 nM and the inhibition at 0.1 µM was over 90%.

`C[C@H](Nc1ncnc2ccc(-c3cnc(Cl)c(NS(C)(=O)=O)c3)cc12)c1ccccc1` [Compound 2S, N-(2-chloro-5-(4-((1S-phenylethyl)amino)quinazolin-6-yl)pyridin-3-yl)methanesulfonamide]: the “½ life minutes (HLM)” value in series [1] is reported as “++++ (value is greater than 60 minutes)”. Moreover, at EGFR, the half-maximal inhibitory concentration (IC50) is over 200 nM and the inhibition at 0.1 µM was under 10%. In series [2], the “½ life minutes (MLM)” value is given as “++++ (value is greater than 60 minutes)”. Moreover, at PI3Ka, the “PI3Ka IC50 (nM)” value was “++++ (value is 2 nM or less)” and the inhibition at 0.1 µM was over 90%.

Turning to `CC(Nc1c(C#N)cnc2ccc(-c3cnc(N)nc3)cc12)c1ccccc1` (centres unmarked) [Compound 53, 6-(2-aminopyrimidin-5-yl)-4-(1-phenylethylamino) quinoline-3-carbonitrile], the “½ life minutes (HLM)” value in series [1] is listed as “++++ (value is greater than 60 minutes)”. In addition, on EGFR, the IC50 was 2 to 20 nM and the inhibition at 0.1 µM lay within 80 to 90%. In addition, in series [2], the “½ life minutes (MLM)” value was “+++ (value is greater than 30 minutes and less than or equal to 60 minutes)”. For the same molecule, at PI3Ka, the “PI3Ka IC50 (nM)” value was “+ (value is greater than 200 nM)” and the inhibition at 0.1 µM lay within 10 to 80%.

Turning to `C[C@@H](Nc1c(C#N)cnc2ccc(-c3cnc(N)nc3)cc12)c1ccccc1` [Compound 53R, (R)-6-(2-aminopyrimidin-5-yl)-4-((1-phenylethyl)amino)quinoline-3-carbonitrile], the “½ life minutes (HLM)” value in series [1] was “+++ (value is greater than 30 minutes and less than or equal to 60 minutes)”. Further, on EGFR, the IC50 is 2 to 20 nM and the inhibition at 0.1 µM was over 90%. The “½ life minutes (MLM)” value in series [2] is “+++ (value is greater than 30 minutes and less than or equal to 60 minutes)”. Besides, at PI3Ka, the “PI3Ka IC50 (nM)” value is “+ (value is greater than 200 nM)” and the inhibition at 0.1 µM fell in the range of 10 to 80%.

On to `CC(Nc1c(C#N)cnc2ccc(-c3cnc4[nH]ncc4c3)cc12)c1ccccc1` (centres unmarked) [Compound 54, 4-(1-phenylethylamino)-6-(1H-pyrazolo[3,4-b]pyridin-5-yl)quinoline-3-carbonitrile], for which the “½ life minutes (HLM)” value in series [1] was “+++ (value is greater than 30 minutes and less than or equal to 60 minutes)”. On EGFR, the IC50 lay in the range of 2 to 20 nM and the inhibition at 0.1 µM is over 90%. The “½ life minutes (MLM)” value in series [2] is given as “+ (value is 15 minutes or less)”. Also, on PI3Ka, the “PI3Ka IC50 (nM)” value is “+ (value is greater than 200 nM)” and the inhibition at 0.1 µM lay in the range of 10 to 80%.

For `C[C@@H](Nc1ncnc2ccc(-c3cnc(Cl)c(NS(C)(=O)=O)c3)cc12)c1ccc(F)cc1` [Compound 111R, N-(2-chloro-5-(4-((1R-(4-fluorophenyl)ethyl)amino)quinazolin-6-yl)pyridin-3-yl)methanesulfonamide], the “½ life minutes (HLM)” value in series [1] is on record as “++++ (value is greater than 60 minutes)”. Further, the figures for the IC50 against EGFR and on PI3Ka were 20 to 200 nM and 2 to 20 nM, respectively. Moreover, the inhibition at 0.1 µM was 10 to 80% on EGFR and over 90% at PI3Ka. Further, the “½ life minutes (MLM)” value in series [2] is recorded as “++++ (value is greater than 60 minutes)”.
